Source: patent US20110044973A1, “TREATMENT OF CYSTIC DISEASE WITH LYSOPHOSPHATIDIC ACID ANTAGONISTS” (priority 2009, published 2011)

Test system: mpkCCDc14 cell line
Test: Short-circuit current electrophysiology in renal principal cells
Type: cell-based, mouse
Details: FIG. 4
Excerpt: Described herein is the method of short-circuit electrophysiology used for detailed examination of the nature of the ion channels stimulated in response to cyst fluid. These studies utilized mouse principal cells of the kidney cortical collecting duct, clone 4 (mpkCCDc14) cell line. These cells have the characteristics of the principal cell type found in the distal portion of the renal nephron. Principal cells often line renal cysts. […] This finding is in agreement with Granthan et al. However, the activation of other ion channels by the fluid was also discovered. When examined in real time, the nature of channel activity by the cyst was quite different than the activity seen in response to forskolin, as shown in FIG. 1. These studies indicate that there are components found in cyst fluid that stimulate multiple ion transporters, which together cause electrolyte and fluid secretion into the cyst lumen.
Electrophysiological testing of effects NASPA on short circuit current. Cell preparations were pre-incubated with NASPA (10 μM) or diluent (DMSO) for 15 minutes prior to administration of 10% fetal bovine serum (FBS). FBS was administered serosally at time zero.
Electrophysiological testing of effects VPC 32183 on LPA induced increase in short circuit current. […]

Question: Which “effect on response to LPA added as part of fetal bovine serum (short circuit current)” value (NASPA 10 μM pre-incubated 15 minutes, 10% FBS added serosally at time zero, versus diluent (DMSO)) does the source give for CCCCCCCCCCCCCCCC(=O)N[C@@H](COP(=O)(O)O)C(=O)O [NASPA] here?
Answer: Its value is “antagonized the LPA added as part of the fetal bovine serum”.

Question: What about the “effect on short circuit current when first added” value (NASPA 10 μM, 15 minutes pre-incubation before 10% FBS) of the same compound?
Answer: The value was “appeared to act like an agonist when first added”.
